IC50 data for 82 molecules are collected here from PubChem BioAssay AID489006 (Sanford-Burnham Center for Chemical Genomics, 2010).

Activity calls are given as the source filed them. The rule behind the calls is not given here.

In the assay the test system is Jurkat NF-kB reporter, luminescence. Nature of the assay: NF-kB reporter inhibition in Jurkat cells, dose response, selectivity assay for B-cell receptor NF-kB inhibitor project, cell-based, luminescence (AID 489006).
For the molecule `Cc1nc2cc(-c3ccccc3)nn2c(C)c1CCC(=O)N1CCC2(CC1)OCCO2`, the IC50 is > 80 µM (inactive).

Turning to `Cc1ccc(/C=C2\SC(=S)N(CCCC(=O)Nc3cccnc3)C2=O)cc1`, the IC50 was 6.11 µM.

For the molecule `CCN(CC)CCOC(=O)c1ccc(NC(=O)CCCN2C(=O)S/C(=C/c3ccc(OC)cc3)C2=S)cc1`, the concentration for half-maximal inhibition (IC50) was 1.48 µM.

In the case of `CC(=C\c1ccccc1)/C=C1/SC(=O)N(CCCC(=O)Nc2ccc(C(=O)O)cc2)C1=O`, the IC50 was > 80 µM (inactive).

In the case of `Cc1csc(NC(=O)CCc2c(C)nc3cc(-c4ccc(Cl)cc4)nn3c2C)n1`, the 50% inhibitory concentration (IC50) is 0.36 µM.

On to `COC(=O)c1[nH]c2ccc(C)cc2c1NC(=O)Nc1ccccc1OC`, for which the IC50 was 55.2 µM (inactive).

Regarding `COc1ccc(/C=C2/SC(=S)N(CCC(=O)O)C2=O)cc1`, the IC50 is 0.4 µM.

`CCN(CC)c1ccc(/C=N/N=C(c2ccccc2)c2ccccc2)c(O)c1`: the IC50 is > 80 µM (inactive).

On to `Cc1cc(C)cc(N2C(=O)NC(=O)/C(=C\c3cccn3-c3ccccc3)C2=O)c1`, for which the IC50 is 16.4 µM.

Regarding `CC(C)(C)c1ccc(-c2noc(CCC(=O)N3CCOCC3)n2)cc1`, the IC50 is > 80 µM (inactive).

With `Cc1ccc(C(=O)CSc2nnc(COc3cc(C)cc(C)c3)o2)cc1`, the IC50 was > 80 µM (inactive).

On to `C=CCOc1ccc(NC(=O)C(=O)NCCCn2ccnc2)cc1`, for which the IC50 was > 80 µM (inactive).

Turning to `CCn1c(CN2CCN(c3ccc(Cl)cc3)CC2)nc2ccccc21`, the IC50 is 39.9 µM (inactive).

As for `CCc1ccc2nc(Nc3nc(COC)cc(=O)[nH]3)nc(C)c2c1`, the IC50 was > 80 µM (inactive).

Take `CCOC(=O)c1sc(NC(=O)c2cc(-c3ccccc3C)nc3ccccc23)c(C#N)c1C`: the IC50 was > 80 µM (inactive).

As for `O=C(N/N=C/c1ccc(Cl)cc1Cl)c1ccc(-n2cnnn2)cc1`, the IC50 is > 80 µM (inactive).

Consider `Cc1ccc(C(=O)N2CCCC(c3ccc(Cl)cc3)=N2)cc1`, for which the IC50 is > 80 µM (inactive).

For the molecule `Cc1cc(C)c2nc(NC(=O)C3CSC4(C)CCC(=O)N34)sc2c1` (configuration not stated), the IC50 is 76.5 µM (inactive).

On to `CCOC(=O)Cc1csc(NC(=S)NC(=O)c2ccc(Cl)cc2)n1`, for which the IC50 was 3.85 µM.

With `CCc1cccc(NC(=O)c2ccc(CNc3c(N4CCCC4)c(=O)c3=O)cc2)c1`, the IC50 is > 80 µM (inactive).

Consider `Cc1ccc(NC(=O)C2CCC(CNc3c(N4CCC(C)CC4)c(=O)c3=O)CC2)cc1F` (configuration not stated), for which the IC50 is > 80 µM (inactive).

As for `COC(=O)[C@@H]1Cc2c([nH]c3ccccc23)C(C)(C)N1C(=O)CCl`, the IC50 is 1.73 µM.

`COc1ccc(C(=O)N/N=C/c2sc(N3CCOCC3)nc2-c2ccccc2)cc1OC`: the IC50 was 35.5 µM (inactive).

As to `Cn1c(=O)cc(OCCCC(=O)N2CCCCC2)c2ccccc21`, the IC50 was > 80 µM (inactive).

Take `Cc1c(CCC(=O)NCCCn2ccnc2)c(=O)oc2c(C)c3oc4c(c3cc12)CCCC4`: the IC50 is 11 µM.

As for `COc1ccc(OCc2cccc(C(=O)Nc3cc(C)on3)c2)cc1`, the IC50 was 3.77 µM.

In the case of `O=C(Oc1cccc(/C=N/Nc2nc(Nc3ccccc3)nc(N3CCOCC3)n2)c1)c1ccco1`, the IC50 is > 80 µM (inactive).

On to `CC(C)CCNC(=O)CCCOc1cc(=O)n(C)c2ccccc12`, for which the IC50 was 70.4 µM (inactive).

As to `COc1ccc(/C=C2/SC(=S)N(CCCC(=O)Nc3ccc(O)cc3)C2=O)cc1OC`, the IC50 was > 80 µM (inactive).

In the case of `Cc1ccc(C(=O)CSc2nnc(COc3cccc(C)c3)o2)cc1`, the IC50 is > 80 µM (inactive).

In the case of `Cc1cc(C)c(CN2CCN(C(=O)Cn3cnc4c(NCc5ccccc5)ncnc43)CC2)c(C)c1`, the IC50 is 69.9 µM (inactive).

Take `COc1cc(C[C@@H]2C(=O)OC[C@H]2Cc2ccc(OC)c(OC)c2)ccc1O`: the IC50 is > 80 µM (inactive).

Regarding `COCCCNC(=O)COc1ccc(-c2nccc(-c3ccccn3)n2)cc1`, the IC50 is 8.68 µM.

`COc1ccc(CC(=O)Nc2cccc(-c3ccc4nnc(C)n4n3)c2)cc1`: the IC50 is > 80 µM (inactive).

Regarding `COc1cc(C(=O)Nc2cc(C)c(OCC(=O)N3CCOCC3)c(C)c2)cc(OC)c1OC`, the IC50 is > 80 µM (inactive).

With `CCN1C(=O)c2cccc3c(S(=O)(=O)N4CCC(C)CC4)ccc1c23`, the IC50 was > 80 µM (inactive).

Consider `CCn1c(=O)cc(OCC(=O)N(C)C2CCCCC2)c2ccccc21`, for which the IC50 is > 80 µM (inactive).

Turning to `CCc1ccc(/C=C2\SC(=S)N(CCC(=O)NC3=NCCS3)C2=O)cc1`, the half-maximal inhibitory concentration (IC50) is 1.3 µM.

In the case of `Cc1c(CCC(=O)O)c(=O)oc2cc3oc4c(c3cc12)CCCC4`, the half-inhibitory concentration (IC50) is 7.43 µM.

`CCOc1ccc(/C=C2\SC(=S)N(CCC(=O)Nc3ccc(C(=O)O)cc3)C2=O)cc1`: the IC50 was > 80 µM (inactive).

As to `C=C1C(=O)[C@@]23C[C@H]4[C@@H]5[C@@]6(C)CCC[C@@]57[C@@H]2[C@@H](O)[C@@H]1C[C@H]3[C@H]7N4C6`, the IC50 was 2.85 µM.

Take `CCc1ccc(/C=C2\SC(=S)N(CCCC(=O)Nc3ccccn3)C2=O)cc1`: the IC50 is 1.58 µM.

With `Cc1c(CCC(=O)N2CCC(C(=O)O)CC2)c(=O)oc2cc3oc4c(c3cc12)CCCC4`, the IC50 was > 80 µM (inactive).

Take `CCc1ccc(-c2nc(CSCC(=O)NC3CC3)c(C)o2)cc1`: the IC50 was 38.5 µM (inactive).

Turning to `Cc1ccc(NC(=O)O/N=C/c2c(C)nn(C(C)(C)C)c2C)cc1Cl`, the 50% inhibitory concentration (IC50) was less than 0.16 µM.

As to `CNC(=O)CCc1nc(-c2ccc(C(C)(C)C)cc2)no1`, the IC50 was > 80 µM (inactive).

Turning to `Cc1nc2cc(-c3cccc(F)c3)nn2c(C)c1CCC(=O)NC(C)CCc1ccco1` (configuration not stated), the IC50 is 4.14 µM.

On to `O=C(CCCN1C(=O)/C(=C/c2ccccc2Cl)SC1=S)NNC(=O)c1ccc(Cl)cc1Cl`, for which the IC50 is 0.76 µM.

Consider `Cn1c(=O)cc(OCC(=O)N2CCC3(CC2)OCCO3)c2ccccc21`, for which the IC50 is > 80 µM (inactive).

As to `Cc1ccc(CSc2nnc(SCC(=O)N/N=C/C=C/c3ccccc3[N+](=O)[O-])s2)cc1`, the IC50 was 67 µM (inactive).

Regarding `CC(C)(C)C(=O)/C(=C/c1ccncc1)n1cncn1`, the half-inhibitory concentration (IC50) was 2.89 µM.

Take `CCc1ccc(/C=C2/SC(=S)N(CCC(=O)Nc3cccc(C(=O)O)c3)C2=O)cc1`: the IC50 was > 80 µM (inactive).

As for `O=C(CCCN1C(=O)S/C(=C\C=C\c2ccccc2)C1=O)Nc1ccc(O)cc1`, the IC50 is > 80 µM (inactive).

Take `Cc1cccc(C(=O)Nc2ccc(CC(=O)O)cc2)c1`: the half-inhibitory concentration (IC50) is 7.41 µM.

With `COc1ccc(/C=C\C(=O)O[C@@H]2C(O)C(O[C@@H]3OC(C)[C@H](O[C@@H]4OCC(O[C@H]5O[C@H](CO)[C@@H](O)C(O)C5O)C(O)C4O)C(O)C3O)[C@H](OC(=O)[C@]34CCC(C)(C)C[C@@H]3C3=CCC5[C@@]6(C)CC(O)C(O[C@@H]7OC(CO)C(O)[C@H](O)[C@H]7O)[C@@](C)(C(=O)O)C6CC[C@@]5(C)[C@]3(CO)CC4)O[C@H]2C)cc1` (some centres not stated), the IC50 was 2.88 µM.

In the case of `CC1=CC(C)(C)Nc2ccc(OC(=O)c3cccnc3)cc21`, the 50% inhibitory concentration (IC50) is 1.17 µM.

With `O=C(C1CCC1)N1CCN(S(=O)(=O)c2ccc([N+](=O)[O-])cc2)CC1`, the IC50 was > 80 µM (inactive).

As for `O=C(CCl)N(c1ccc(Cl)cc1)c1c[nH]c2ccccc12`, the half-maximal inhibitory concentration (IC50) is 0.85 µM.

For the molecule `CCN(CC(=O)Nc1c(F)cccc1F)C(=O)c1cc(S(=O)(=O)N(C)C)ccc1N1CCCC1`, the IC50 is > 80 µM (inactive).

As to `CCN(CC(=O)Nc1c(F)cccc1F)C(=O)c1cc(S(=O)(=O)N2CCOCC2)ccc1N1CCCC1`, the IC50 was > 80 µM (inactive).

For the molecule `CC1CCC/C=C/C2CC(O)CC2C(O)/C=C/C(=O)O1` (configuration not stated), the IC50 was > 80 µM (inactive).

In the case of `COC(=O)c1c(NC(=O)c2cccc([N+](=O)[O-])c2)sc(C(N)=O)c1C`, the IC50 was > 80 µM (inactive).

On to `COc1ccc(NC(=O)c2cc(-c3ccccn3)nc3ccccc23)cc1S(=O)(=O)N(C)C`, for which the IC50 is 26.6 µM (inactive).

For `CCCNC(=O)c1ccc(N2CCC3(CC2)CC(c2cccc(Br)c2)=NO3)c(NC(=O)c2ccc(Cl)c([N+](=O)[O-])c2)c1`, the IC50 is > 80 µM (inactive).

As for `COc1cc(-c2nc(C(=O)NCC3CCCO3)cc3c2[nH]c2ccccc23)cc(OC)c1OC` (configuration not stated), the half-maximal inhibitory concentration (IC50) was 18 µM.

For `Cc1cc(C)cc(OCc2nnc(SCC(=O)c3ccccc3)o2)c1`, the IC50 is > 80 µM (inactive).

In the case of `CN(C)C(=O)CCc1nc(-c2ccc(C(C)(C)C)cc2)no1`, the IC50 is > 80 µM (inactive).

For `COc1ccc(-c2noc(N3CCC(C(=O)Nc4ccc(OC)c(OC)c4)CC3)n2)cc1`, the IC50 is > 80 µM (inactive).

For `Nc1ccccc1SCC(=O)Nc1nc(-c2ccccc2)cs1`, the IC50 is > 80 µM (inactive).

With `CCOc1ccc(-c2cc(CCCC(=O)NCc3ccco3)no2)cc1`, the IC50 was > 80 µM (inactive).

With `COc1ccc(-n2ncc3c(N4CCC(C(N)=O)CC4)ncnc32)cc1`, the IC50 was > 80 µM (inactive).

As for `CN1C(=O)c2cccc3c(S(=O)(=O)Nc4ccccc4F)ccc1c23`, the IC50 is 35.8 µM (inactive).

As for `Cn1c(=O)n(C)c2cc(NS(=O)(=O)c3ccccc3)ccc21`, the IC50 was 51.8 µM (inactive).

Consider `COc1ccccc1/C=C1/SC(=S)N(CCC(=O)Nc2cccnc2)C1=O`, for which the IC50 is > 80 µM (inactive).

In the case of `COC(=O)[C@@]12OC[C@]34[C@H]([C@@H](O)[C@@H]1O)[C@@]1(C)C(=O)C(O[C@@H]5OC(CO)[C@@H](O)[C@@H](O)[C@@H]5O)=C[C@@H](C)[C@@H]1C[C@H]3OC(=O)[C@H](OC(=O)/C=C(\C)C(C)(C)OC(C)=O)[C@@H]24` (some centres not stated), the concentration for half-maximal inhibition (IC50) was 0.82 µM.

In the case of `COc1ccc(Cc2nc(-c3ccc(NC(=O)c4cccnc4)cc3)no2)cc1`, the IC50 was > 80 µM (inactive).

`CCN(CC)CCCN=Cc1c(-c2ccccc2)[nH]n(-c2nc3ccccc3s2)c1=O`: the IC50 was 7.55 µM.

Regarding `Cc1nc2ccccn2c1C(=O)/C=C/c1cccc([N+](=O)[O-])c1`, the 50% inhibitory concentration (IC50) is 4.57 µM.

In the case of `CCOC(=O)Cc1csc(NC(=S)NC(=O)c2ccc(C)cc2)n1`, the concentration for half-maximal inhibition (IC50) was 0.72 µM.

For the molecule `CCN(CC)C(=O)c1ccc(S(=O)(=O)Cc2ccc(C)cc2)c([N+](=O)[O-])c1`, the half-maximal inhibitory concentration (IC50) is 7.08 µM.

For the molecule `COc1ccc(-n2nnnc2S(=O)(=O)CC(=O)N2CCCCC2)cc1`, the IC50 is 2.25 µM.

With `Cn1c(=O)n(C)c2cc(/C=C3/NC(=O)N(Cc4ccccc4)C3=O)ccc21`, the IC50 was > 80 µM (inactive).

One may read the IC50 as the midpoint of a concentration-inhibition curve.
